These results are taken from patent publication US7425577B2, “Lipase-colipase inhibitor” (Forskarpatent 1 SYD AB, priority 2003, dated 2008).

This assay has as its target T1, Lipase and colipase, purified from human pancreatic gland (Homo sapiens, UniProt P04118+P16233).
T1 construct: Lipase, Purified from Human Pancreatic Gland; Colipase, Purified from Human Pancreatic Gland; from tissue; host or cells: human pancreatic gland
T1 sequence (P16233 17-465): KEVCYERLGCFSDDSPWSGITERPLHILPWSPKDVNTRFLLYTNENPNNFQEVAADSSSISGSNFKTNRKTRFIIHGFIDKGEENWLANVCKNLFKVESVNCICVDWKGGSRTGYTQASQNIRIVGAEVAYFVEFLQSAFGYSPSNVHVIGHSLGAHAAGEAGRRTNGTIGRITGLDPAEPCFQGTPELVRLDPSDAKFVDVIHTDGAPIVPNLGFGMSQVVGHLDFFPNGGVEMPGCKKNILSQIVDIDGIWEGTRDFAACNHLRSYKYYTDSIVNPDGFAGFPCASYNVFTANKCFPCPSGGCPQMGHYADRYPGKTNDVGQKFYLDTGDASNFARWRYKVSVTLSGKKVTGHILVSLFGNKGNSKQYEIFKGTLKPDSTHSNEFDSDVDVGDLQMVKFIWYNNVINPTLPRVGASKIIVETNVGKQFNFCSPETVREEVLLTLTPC
T1 sequence (P04118 23-112): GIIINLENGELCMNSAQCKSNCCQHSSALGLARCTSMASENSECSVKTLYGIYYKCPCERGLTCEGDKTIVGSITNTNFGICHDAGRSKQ
In words: Determination of lipolysis by colipase/lipase (pH-stat, tributyrine emulsion with NaTDC). In kind it is biochemical. The text has this:
Determination of Lipolysis by Colipase/Lipase
The most important enzyme in the gastro-intestinal tract being responsible for the hydrolysis of lipids/fats in the gastro-intestinal tract is lipase, pancreatic lipase, together with its protein cofactor colipase. These are two proteins, which are secreted from the pancreatic gland. […] The colipase binds to lipase in a molar 1:1 complex and then moves the complex to the triglyceride surface. In the binding between lipase and colipase hydrogen bonds are present, between arg38 of the colipase and ser343 of the lipase and from glu15 of the colipase and the asn241 of the lipase molecules. In the binding of colipase to the substrate (the lipids/fat) there are both hydrophobic bonds as well as ion-ion bonds present. By an isolated lack of colipase it has been shown that colipase has a decisive role for the lipolysis in the gastro-intestinal tract of humans. Pure lipase and colipase have been produced in accordance with the following.
Lipase, Purified from Human Pancreatic Gland
Colipase, Purified from Human Pancreatic Gland
0.5 ml of tributyrine is mixed with 15 ml of a buffer containing 1 mM CaCl2, 150 mM NaCl, 2 mM tris-maleate, pH 7.0 and 4 mM NaTDC (sodium taurodeoxycholate). An emulsion is obtained by continuous stirring. pH is titrated by means of a pH-state, where 0.1 N NaOH is added automatically to keep an constant pH. 10 μl of lipase is added from a stock solution containing 70 units of lipase/ml, followed by 10 μl of colipase from a stock solution containing 1 mg colipase/ml. An activity is registered which is determined to be 100%. An addition of an inhibitor is then made. A new assay is used for every concentration, prepared in the same way. The inhibition is registered as percentage of control. A dose-response plot is obtained for the compounds having an inhibiting ability.

Regarding `CCCCCCCCOCCN(C)C` [dimethylaminoethyl octyl ether], the “Activity Inhibitor” value (amount of inhibitor 2.49 μmol, control activity 0.304) worked out at 0.249 µmol/min; the “Activity Inhibitor” value (amount of inhibitor 4.98 μmol, control activity 0.319) turned out to be 0.215 µmol/min; the “Activity Inhibitor” value (amount of inhibitor 8.71 μmol, control activity 0.314) amounted to 0.136 µmol/min; the “Activity Inhibitor” value (amount of inhibitor 12.44 μmol, control activity 0.356) was 0.069 µmol/min; the “Activity Inhibitor” value (amount of inhibitor 18.66 μmol, control activity 0.32) was 0.053 µmol/min; the “Activity Inhibitor” value (amount of inhibitor 21.89 μmol, control activity 0.293) worked out at 0.035 µmol/min. Moreover, the “Activity Inhibitor” value (amount of inhibitor 24.88 μmol, control activity 0.278) was determined as 0 µmol/min.
Take `CCCCCCCCCCCCOCCOCCOCCOCCOCCOCCOCCOCCOCCN(CCC)CCC` [dipropylaminoethyl octaethyleneglycol dodecyl ether]: the “Activity Inhibitor” value by setting is: (amount of inhibitor 0.2 μmol, control activity 0.256) 0.256 µmol/min; (amount of inhibitor 0.4 μmol, control activity 0.28) 0.256 µmol/min; (amount of inhibitor 0.8 μmol, control activity 0.259) 0.209 µmol/min; (amount of inhibitor 2.01 μmol, control activity 0.25) 0.136 µmol/min; (amount of inhibitor 4.02 μmol, control activity 0.246) 0.096 µmol/min; (amount of inhibitor 8.04 μmol, control activity 0.244) 0.033 µmol/min. Moreover, the “Activity Inhibitor” value (amount of inhibitor 12.06 μmol, control activity 0.252) was 0.011 µmol/min and the “Activity Inhibitor” value (amount of inhibitor 16.08 μmol, control activity 0.247) came to 0 µmol/min.
For the molecule `CCCCCCCCCCCCCCN(C)C` [N,N-dimethyl tetradecyl amine], the “Activity Inhibitor” value is, setting by setting: (amount of inhibitor 1.04 μmol, control activity 0.226) 0.179 µmol/min; (amount of inhibitor 2.07 μmol, control activity 0.243) 0.121 µmol/min; (amount of inhibitor 4.14 μmol, control activity 0.223) 0.056 µmol/min; (amount of inhibitor 7.25 μmol, control activity 0.257) 0.045 µmol/min; (amount of inhibitor 10.35 μmol, control activity 0.282) 0.033 µmol/min; (amount of inhibitor 15.53 μmol, control activity 0.256) 0 µmol/min.
For `CCCCCCCCCCCCOCCOCCOCCOCCOCCOCCN(C)C` [dimethylaminoethyl pentaethyleneglycol dodecyl ether], the “Activity Inhibitor” value reads like this: (amount of inhibitor 0.26 μmol, control activity 0.307) 0.273 µmol/min; (amount of inhibitor 0.52 μmol, control activity 0.29) 0.236 µmol/min; (amount of inhibitor 1.05 μmol, control activity 0.302) 0.222 µmol/min; (amount of inhibitor 2.62 μmol, control activity 0.299) 0.13 µmol/min; (amount of inhibitor 5.23 μmol, control activity 0.314) 0.083 µmol/min; (amount of inhibitor 7.85 μmol, control activity 0.312) 0.04 µmol/min. The “Activity Inhibitor” value by setting is: (amount of inhibitor 10.46 μmol, control activity 0.3) 0.015 µmol/min; (amount of inhibitor 15.69 μmol, control activity 0.319) 0.009 µmol/min; (amount of inhibitor 20.92 μmol, control activity 0.282) 0 µmol/min.
